Measured values reported in US5318989A, “Cytotoxic bicyclo [7.3.1.]tridec-4-ene-2,6-diyne compounds and process for the preparation thereof” (Bristol-Myers Squibb Company, priority 1992, dated 1994).
In brackets after ≈: the same amount, converted by molar mass. Several values for one entry are separate records, joined by “and”; a condition that tells them apart may be missing. Equal values may be shown once. Read-outs that look alike come from different tables or passages of the source.

Key:
[1] = system: HCT-116 human colon tumor cell line; assay: In vitro cytotoxicity assay; type: cell-based; conditions: three determinations
Procedure: (§1) Compound of Example 4 was evaluated in vitro against three human colon tumor cell lines: HCT-116, HCT/VM46, and HCT/VP35; the latter two are resistant to teniposide and etoposide, respectively. The in vitro cytotoxicity assay involved growing tumor cells on microtitre plates employing established tissue culture methods. The concentration of the test compound required to inhibit cell growth by 50% (IC50) was then determined by four-fold serial dilution technique. In the experiment, etoposide and teniposide were included as positive controls.

[2] = system: HCT/VM46 human colon tumor cell line (teniposide-resistant); assay: In vitro cytotoxicity assay; type: cell-based; conditions: three determinations
Procedure: as §1

[3] = system: HCT/VP35 human colon tumor cell line (etoposide-resistant); assay: In vitro cytotoxicity assay; type: cell-based; conditions: three determinations
Procedure: as §1

P388 leukemia = assay: In vivo activity against transplantable murine P388 leukemia in CDF1 mice; conditions: for Survival d.5: day 5; for Med. Survival Time / % T/C: intraperitoneal; for Med. Survival Time: 5 consecutive days from day 1, control 11 d; for % T/C: 5 consecutive days, 125 or greater is significant
Procedure: The compound of Example 4 was also evaluated against transplantable murine P388 leukemia. CDF1 mice were implanted intraperitoneally with a tumor inoculum of 10^6 cells of P388 leukemia and treated with various doses of the test compound Six mice were used for each dose level and 10 mice were treated with saline to serve as control. The test compound was administered intraperitoneally on 5 consecutive days starting on day 1 after tumor implantation. Antitumor activity is expressed as % T/C which is the ratio of mean survival time (MST) for the drug-treated group to the MST of saline-treated control group.
A compound showing a % T/C of 125 or greater is considered to have significant antitumor activity.

DNA = conditions: J. Org. Chem. 1989, 54:2781-2783; J. Am. Chem. Soc. 1989, 111:7638-7641; cited from earlier work
[4] = Homo sapiens, HCT-116, HCT-116, read-out: IC50
[5] = Homo sapiens, HCT/VP35, HCT/VP35, read-out: IC50

O=C1C2=CCCC1(O)C#CC=CC#CC2O (centres unmarked) [Example 4, 1,8-Dihydroxy-bicyclo7.3.1]trideca-4,9-diene-2,6-divn-13-one]
IC50 ([1]; HCT-116): 0.037 µg/mL and 0.043 µg/mL and < 0.031 µg/mL
IC50 [2]: < 0.031 µg/mL and 0.047 µg/mL
IC50 ([3]; HCT/VP35): 0.042 µg/mL and 0.046 µg/mL and 0.072 µg/mL
Survival d.5 (P388 leukemia; 1 mg/kg/dose): 6/6
Med. Survival Time (P388 leukemia; 1 mg/kg/dose): 13 days
% T/C (P388 leukemia; 1 mg/kg/dose): 118%
Survival d.5 (P388 leukemia; 2 mg/kg/dose): 6/6
Med. Survival Time (P388 leukemia; 2 mg/kg/dose): 16.5 days
% T/C (P388 leukemia; 2 mg/kg/dose): 150%
Survival d.5 (P388 leukemia; 4 mg/kg/dose): 6/6
Med. Survival Time (P388 leukemia; 4 mg/kg/dose): 20.0 days
% T/C (P388 leukemia; 4 mg/kg/dose): 182%
Survival d.5 (P388 leukemia; 8 mg/kg/dose): 6/6
number of surviving mice on day 39 (P388 leukemia; 8 mg/kg/dose, day 39): 4 mice
Med. Survival Time (P388 leukemia; 8 mg/kg/dose): > 39 days
% T/C (P388 leukemia; 8 mg/kg/dose): > 355%
Survival d.5 (P388 leukemia; 16 mg/kg/dose): 6/6
Med. Survival Time (P388 leukemia; 16 mg/kg/dose): 9.5 days
% T/C (P388 leukemia; 16 mg/kg/dose): 86%
Survival d.5 (P388 leukemia; 32 mg/kg/dose): 6/6
Med. Survival Time (P388 leukemia; 32 mg/kg/dose): 7 days
% T/C (P388 leukemia; 32 mg/kg/dose): 64%
activity against P388 leukemia (P388 leukemia; conclusion from Table II): high activity against P388 leukemia

O=C1C2=CCCC1(O)C#C/C=C\C#CC2 (centres unmarked) [Example 15, 1-Hydroxy-bicylco[7.3.1]trideca-4,9-diene-2,6-diyne-13-one]
max. %T/C (P388 leukemia; at 40 mg/kg/dose, same protocol): 230%

O=C1CC2C(=O)C(O)(C#CC=CC#CC2O)C1 (centres unmarked) [1,8-dihydroxy-bicyclo[7.3.1]tridec-4-ene-2,6-diyn-11,13-dione]
DNA cleavage in vitro (DNA): shown to cleave DNA in vitro

COc1cc([C@@H]2c3cc4c(cc3[C@@H](O[C@@H]3O[C@@H]5CO[C@@H](C)O[C@H]5[C@H](O)[C@H]3O)[C@H]3COC(=O)[C@H]23)OCO4)cc(OC)c1O [Etoposide]
IC50 ([1]; HCT-116): 0.128 µg/mL and 0.140 µg/mL
IC50 [1, 4]: 0.101 µg/mL (≈ 0.172 µM)
IC50 ([3]; HCT/VP35): 6.29 µg/mL and 6.75 µg/mL
IC50 [3, 5]: 5.14 µg/mL (≈ 8.73 µM)

COc1cc([C@@H]2c3cc4c(cc3[C@@H](O[C@@H]3O[C@@H]5CO[C@@H](c6cccs6)O[C@H]5[C@H](O)[C@H]3O)[C@H]3COC(=O)[C@H]23)OCO4)cc(OC)c1O [Teniposide]
IC50 ([1]; HCT-116): 0.088 µg/mL and 0.083 µg/mL
IC50 [1, 4]: 0.077 µg/mL (≈ 0.117 µM)
IC50 ([2]; Homo sapiens, read-out: IC50): 0.313 µg/mL (≈ 0.477 µM)
IC50 [2]: 0.237 µg/mL and 0.236 µg/mL
IC50 ([3]; HCT/VP35): 0.091 µg/mL and 0.111 µg/mL
IC50 [3, 5]: 0.084 µg/mL (≈ 0.128 µM)

O=C(OC1C#CC=CC#CC2(O)CCC=C1C2=O)c1cnc2ccccc2n1 (centres unmarked) [Example 6]
mouse surviving on day 31 (P388 leukemia; 20 mg/kg/dose, day 31): one
maximum %T/C (P388 leukemia; at 20 mg/kg/dose, same protocol): 235%

1-Hydroxy-8-[[(2-quinoxolyamino)carbonyl]oxy]-bicyclo[7.3.1]trideca-4,7-diene-2,6-divn-13-one [Example 8]
max. %T/C (P388 leukemia; at 15 mg/kg/dose, same protocol): 145%
